From article PMC3532304, “Piperidinols That Show Anti-Tubercular Activity as Inhibitors of Arylamine N-Acetyltransferase: An Essential Enzyme for Mycobacterial Survival Inside Macrophages” (PLoS ONE, 2012)
≈ marks a conversion by molar mass, not a printed value. Where “and” joins values, the source holds several entries; their conditions need not be identical. Equal entries are not always repeated. Where two headings read alike, the source gives them in different places.

Experiments:
TBNAT [1] = target: T1, TBNAT (Mycobacterium tuberculosis, UniProt P9WJI5); assay: ESI-MS analysis of covalent enzyme-inhibitor adducts; assay type: binding, M. tuberculosis
T1 construct: made in house

MMNAT [2] = target: T2, MMNAT (Mycobacterium marinum, UniProt B2HIZ6); assay: as above; assay type: binding, M. marinum; conditions: enzyme-to-inhibitor ratio 1∶1; for Δm of enzyme-inhibitor adduct (MMNAT): 24°C, 30–60 min; for Molar ratio (inhibitor/protein) (MMNAT): proposed number of inhibition species bound per protein molecule
Protocol: ESI-MS was performed as described previously. A sample of 2.5 mg/mL (80 µM) MMNAT was analyzed on a Micromass LCT mass spectrometer. The samples were pretreated with DMSO or 0.08–1.2 mM inhibitor dissolved in DMSO to a final percentage of 5% (v/v) DMSO and incubated for 30–60 min before analysis. ESI-MS analysis was performed in positive ion mode after denaturation in 50% v/v acetonitrile in water with an accuracy of ±0.1%. The sample was run over a desalting column prior to MS analysis.

NAT = assay: Inhibition of NAT activity by PVK; assay type: biochemical; conditions: within 10 minutes, at less than 1 µM
hamster NAT2 (shNAT2) = target: T3, hamster NAT2 (shNAT2) (Mesocricetus auratus, UniProt P50293); assay: Specificity panel of recombinant NAT enzymes (Ac-CoA hydrolysis with 5ASA); assay type: biochemical; conditions: 30 µM
T3 construct: made in house
T3 sequence (P50293 1-290): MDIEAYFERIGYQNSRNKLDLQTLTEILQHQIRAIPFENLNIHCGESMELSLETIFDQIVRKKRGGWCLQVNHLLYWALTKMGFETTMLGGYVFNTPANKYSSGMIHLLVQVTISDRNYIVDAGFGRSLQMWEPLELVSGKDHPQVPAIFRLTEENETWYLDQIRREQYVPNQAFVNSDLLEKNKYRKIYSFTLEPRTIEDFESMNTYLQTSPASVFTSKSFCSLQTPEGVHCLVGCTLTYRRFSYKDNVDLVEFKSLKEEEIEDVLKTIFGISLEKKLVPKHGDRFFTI
Protocol: (§1) Figure 2 Specificity of compound 1 for prokaryotic NAT enzymes. Compound 1 was tested at 30 µM against pure recombinant NAT enzymes from M. smegmatis (MSNAT), P. aeruginosa (PANAT), S. typhimurium (STNAT), MMNAT and TBNAT, and also against two eukaryotic enzymes, hamster NAT2 (shNAT2) and human NAT1. The results are shown as the mean ± S.D. of triplicate determinations of the percentage inhibition of hydrolysis of Ac-CoA in the presence of 5-aminosalicylic acid (5ASA) and against TBNAT using hydralazine as a substrate. The inhibition is represented as a percentage compared to an uninhibited control from triplicate measurements. The structure of compound 1 is shown and the piperidinol nucleus is highlighted by the shaded area.

human NAT1 = target: T4, human NAT1 (Homo sapiens, UniProt P18440); assay: as above; assay type: biochemical; conditions: 30 µM
T4 construct: made in house
T4 sequence (P18440 1-290): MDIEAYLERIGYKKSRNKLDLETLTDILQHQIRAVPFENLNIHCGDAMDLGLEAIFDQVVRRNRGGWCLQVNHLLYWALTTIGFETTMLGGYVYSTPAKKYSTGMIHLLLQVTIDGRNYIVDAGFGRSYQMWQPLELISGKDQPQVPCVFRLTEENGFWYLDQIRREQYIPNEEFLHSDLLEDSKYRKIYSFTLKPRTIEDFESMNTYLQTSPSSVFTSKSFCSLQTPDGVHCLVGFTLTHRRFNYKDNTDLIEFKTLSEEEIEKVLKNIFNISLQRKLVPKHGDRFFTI
Protocol: as §1

TBNAT [3] = target: T1, TBNAT; assay: NAT-inhibition assay (Ac-CoA hydrolysis with hydralazine, Ellman's reagent); assay type: biochemical, M. tuberculosis; conditions: for inhibition at 50 µM: read-out: TBNAT % Inhibition; for IC50: mean ± S.D.
Protocol: (§2) An assay for measuring the formation of CoA was used to determine the activity of the enzyme in the presence of potential inhibitors. All the tested compounds were dissolved in dimethylsulphoxide (DMSO) and all reactions were carried out in the presence of 5% (v/v) DMSO. The enzyme (100–150 ng) was mixed with the inhibitors 1–5 (5 µL at a final concentration of 0–250 µM) and incubated for 15 min at 24°C prior to starting the reaction by adding 15 µL hydralazine and 12 µL Ac-CoA at final concentrations of 150 µM and 120 µM respectively, in a final total volume of 100 µL of 20 mM Tris-HCl pH 8. The assay was performed as an end-point read out measurement by stopping the reaction after 10 min at 24°C using 25 µL Ellman's reagent (5 mM 5,5′-dithiobis-(2-nitrobenzoate) solution in 6.4 M guanidine-HCl and 100 mM Tris-HCl, pH 7.3). The absorbance was measured at a wavelength of 405 nm within 2 min (Tecan Sunrise Plate Reader). The assays were repeated using a 10-fold enzyme concentration to exclude promiscuous non-specific inhibitors. The activity of the enzyme in the presence of 5% (v/v) DMSO was measured as a control. Inhibition values were determined as the ratio of the enzyme activity (expressed as the rate of CoA formation per microgram protein (µM/min.µg)) with the requisite compound, to the activity of the control without inhibitor. IC50 values were determined from the inhibition curves which were obtained by non-linear fitting of the % inhibition and the inhibitor concentration (µM) using the Log(inhibitor) vs. response module of GraphPad Prism 5.0.

M. tuberculosis H37Rv = assay: Mycobacterial growth inhibition in vitro (spot culture on solid medium); assay type: cell-based; conditions: for MIC: Mycobacterium tuberculosis, H37RV, 336 h, read-out: MIC M. tuberculosis; for MIC M. tuberculosis: H37Rv, solid 7H10-OADC medium, no growth after 2 weeks
MMNAT [4] = target: T2, MMNAT; assay: NAT-inhibition assay (Ac-CoA hydrolysis with hydralazine, Ellman's reagent); assay type: biochemical, M. marinum; conditions: for inhibition at 50 µM: read-out: MMNAT % Inhibition; for IC50: mean ± S.D.
Protocol: as §2

MMNAT [5] = target: T2, MMNAT; assay: Time-dependent inhibition assay (Kitz and Wilson model); assay type: biochemical, M. marinum; conditions: 24°C
Protocol: The time course of the inhibition of NAT by the piperidinols was evaluated according to the Kitz and Wilson model. Irreversible inhibition, progressive with time, was measured for the piperidinol inhibitors (1–5) by the protocol described in Figure S2, and the values of the apparent first order constant (kobs) were determined (Table 1). Dilution rather than dialysis was used in this protocol due to the likely loss of activity upon dialysis (Figure 3). […] Examples of the curves obtained for enzyme activity against incubation time upon inhibition of MMNAT and TBNAT by the piperidinols are shown in Figure 4.
For the determination of the time dependence of interaction between enzymes and inhibitors, the inhibitor was diluted to less than 1% concentration. Incubation mixtures (20 µL) contained 0.06 mM MMNAT or TBNAT in 20 mM Tris-HCl, pH 8 and 5% (v/v) DMSO and variable concentrations of the inhibitors (0–50 µM) were prepared using the protocol described in Figure S1. Aliquots of 1 µL were removed from the reaction mixture at different time points (incubation-time) and diluted to 100 µL using the assay buffer containing HLZ and Ac-CoA to the final concentrations of 150 µM and 120 µM, respectively. The rate of Ac-CoA hydrolysis was measured over a three-minute time period. The reaction was stopped with 25 µL Ellman's reagent in 6.4 M guanidine and the absorbance was measured at a wavelength of 405 nm. The residual activity was measured as a percentage of a control prepared as described in Figure S1 and plotted against the incubation-time. The data were fitted using the Semilog line (X is linear, Y is Log) module of GraphPad Prism 5.0. The slope of each line is equivalent to (−kobs/2.303) at each inhibitor concentration.The controls in which no enzyme was present using CoA and Ellman's reagent gave the same results whether compound 1 was present or not.

M. bovis BCG = assay: microbe, parasite or virus in culture; assay type: cell-based; conditions: for MIC: Mycobacterium tuberculosis variant bovis BCG, BCG, 336 h, read-out: MIC M. bovis BCG; for MIC M. bovis BCG: solid 7H10-OADC medium, no growth after 2 weeks
MMNAT [6] = target: T2, MMNAT; assay: Reversibility of inhibition by dialysis; assay type: biochemical, M. marinum; conditions: 15-fold molar excess, 1 h at 24°C, dialysis 16 h at 4°C
Protocol: (§3) Figure 3 Reversibility of the inhibition of TBNAT and MMNAT by compound 1. Each enzyme (MMNAT, TBNAT, 0.07 mM, 50 µL) was preincubated either alone or with 15-fold molar excess 1 at 24°C for 1 h. Each sample was then dialysed against 1 L fresh assay buffer (20 mM Tris-HCl pH 8) at 4°C for 16 h. The enzyme activities of the samples were measured before dialysis and then measured after dialysis by measuring the rate of Ac-CoA hydrolysis in the presence of HLZ as described in Methods. The mean ± S.D. of three measurements of the activity is shown. Loss of enzyme activity upon dialysis is likely to be due to the oxidation of the active site sulfhydryl group, especially since dialysis was performed in the absence of dithiothreitol.
(§4) For the reversibility studies, excess inhibitor was […] by dialysis. Each enzyme (0.07 mM MMNAT or TBNAT in 20 mM Tris-HCl pH 8 and 5% (v/v) DMSO) was preincubated either alone or with 15-fold molar excess of compound 1 in a final volume of 50 µL at 24°C for 1 h. Each sample was then dialysed against 1 L fresh assay buffer (20 mM Tris-HCl pH 8) at 4°C for 16 h. The enzyme activities of the samples were measured before dialysis and then measured after dialysis by measuring the rate of Ac-CoA (120 µM) hydrolysis in the presence of 150 µM HLZ.

M. tuberculosis = system: M. tuberculosis; set-up: method as in PMID 13402115; conditions: cited from earlier work
TBNAT [7] = target: T1, TBNAT; assay: Reversibility of inhibition by dialysis; assay type: biochemical, M. tuberculosis; conditions: 15-fold molar excess, 1 h at 24°C, dialysis 16 h at 4°C
Protocol: as §3, §4

[8] = set-up: method as in PMID 16032973; conditions: cited from earlier work
[9] = 50 µM inhibitor, 150 µM HLZ, 120 µM Ac-CoA, 24°C, mean ± S.D. of triplicate
[10] = 150 µM HLZ, 120 µM Ac-CoA, 24°C

T2 sequence (B2HIZ6 entry or part of it): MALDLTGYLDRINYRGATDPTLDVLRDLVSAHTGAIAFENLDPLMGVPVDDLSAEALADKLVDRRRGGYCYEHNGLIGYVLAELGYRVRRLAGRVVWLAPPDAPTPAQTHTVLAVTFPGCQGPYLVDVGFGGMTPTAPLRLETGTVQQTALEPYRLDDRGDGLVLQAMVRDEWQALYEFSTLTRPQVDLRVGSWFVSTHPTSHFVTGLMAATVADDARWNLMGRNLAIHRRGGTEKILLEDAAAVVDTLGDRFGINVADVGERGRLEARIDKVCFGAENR
T1 sequence (P9WJI5 whole entry): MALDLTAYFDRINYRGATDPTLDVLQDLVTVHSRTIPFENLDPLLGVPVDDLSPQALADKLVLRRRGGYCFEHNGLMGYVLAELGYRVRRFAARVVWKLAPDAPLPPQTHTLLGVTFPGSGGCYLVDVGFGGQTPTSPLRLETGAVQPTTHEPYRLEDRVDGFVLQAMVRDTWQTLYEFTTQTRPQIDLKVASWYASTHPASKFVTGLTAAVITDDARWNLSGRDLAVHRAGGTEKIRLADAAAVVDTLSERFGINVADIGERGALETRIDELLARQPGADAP

Row | Structure (SMILES) | Δm of enzyme-inhibitor adduct (MMNAT) (MMNAT [2]) | Molar ratio (inhibitor/protein) (MMNAT) (MMNAT [2]) | inhibition at 50 µM (TBNAT [3]; [9]) [%] | IC50 (TBNAT [3]; [10]) [nM] | MIC (M. tuberculosis H37Rv) [µM] | inhibition at 50 µM (MMNAT [4]; [9]) [%] | IC50 (MMNAT [4]; [10]) [nM] | MMNAT kobs (MMNAT [5]; inhibitor at 11.9 µM) | MIC (M. bovis BCG) [µM] | TBNAT % Inhibition (TBNAT [3]; [9]) [%] | MIC M. tuberculosis (M. tuberculosis H37Rv) [µM] | MMNAT % Inhibition (MMNAT [4]; [9]) [%] | MIC M. bovis BCG (M. bovis BCG) [µM] | further results
1 | C=CC(=O)c1ccccc1 [PVK, phenyl vinyl ketone, reference compound] | 132 Da | 1 |  |  |  |  |  |  |  |  |  |  |  | mass difference of enzyme adduct (TBNAT) (TBNAT [1]; ratio not stated): 132; inhibition of the NAT activity (NAT): 100%
2 | CN1CCC(O)(c2ccccc2)C(C(=O)c2ccccc2)C1 (centres unmarked) [compound 1, (4-hydroxy-1-methyl-4-phenylpiperidin-3-yl)(phenyl)methanone] | 132 Da and 132.6 Da | 1 | 101 ± 1 | 7700 ± 900 | 3.4 to 16.9 (≈ 1 to 4.99 µg/mL) | 105 ± 1 | 1300 | 9±2 10^−3 min^−1 | 21.3 to 42.3 (≈ 6.29 to 12.5 µg/mL) |  |  |  |  | inhibition of eukaryotic NAT (hamster NAT2) (hamster NAT2 (shNAT2)): did not show significant inhibition; inhibition of eukaryotic NAT (human NAT1) (human NAT1): did not show significant inhibition; Molar ratio (inhibitor/protein) (TBNAT) (TBNAT [1]; enzyme-to-inhibitor ratio 1∶15, proposed number of inhibition species bound per protein molecule): 1 and 2; restoration of enzyme activity by dialysis (MMNAT) (MMNAT [6]): completely ineffective in restoring the activity; minimum inhibitory concentration (MIC) against M. tuberculosis (M. tuberculosis; conversion of the µg/mL value): ~17 µM (≈ 5.02 µg/mL); minimum inhibitory concentration (MIC) against M. tuberculosis (M. tuberculosis; reported over 50 years ago): less than 5 µg/mL; restoration of enzyme activity by dialysis (TBNAT) (TBNAT [7]): completely ineffective in restoring the activity
3 | CN1CCC(O)(c2ccc(Cl)cc2)C(C(=O)c2ccc(Cl)cc2)C1 (centres unmarked) [compound 2] | 164 Da and 164.3 Da | 1 |  | 1600 ± 100 |  |  | 160 ± 10 | 110±2 10^−3 min^−1 |  | 98±1 | 2.7 to 13.7 | 103±2 | 17.3 to 34.3 | 
4 | O=C(c1ccccc1)C1CN(C2CCCCC2)CCC1(O)c1ccccc1 (centres unmarked) [compound 3] | 132 Da and 131.5 Da | 1 |  | 4400 ± 100 | 2.8 to 13.8 (≈ 1.02 to 5.02 µg/mL) |  |  |  | 17.3 to 34.4 (≈ 6.29 to 12.5 µg/mL) |  |  |  |  | inhibition at 50 µM (TBNAT [3]): 72 ± 60%; inhibition at 50 µM (MMNAT [4]): 103 ± 1%; MMNAT kobs (MMNAT [5]; inhibitor at 5.9 µM): 573±18 10^−3 min^−1
5 | CC1(C)CC(N2CCC(O)(c3ccccc3)C(C(=O)c3ccccc3)C2)CC(C)(C)N1 (centres unmarked) [compound 4] | 132 Da and 130.5 Da | 1 | 67 ± 4 | 1100 ± 300 | 2.3 to 11.7 (≈ 0.967 to 4.92 µg/mL) | 100 ± 2 | 2700 ± 400 | 586±115 10^−3 min^−1 | 14.8 to 29.3 (≈ 6.22 to 12.3 µg/mL) |  |  |  |  | 
6 | CN(CCC(=O)c1ccccc1)CCC(=O)c1ccccc1 [compound 5] | 132 Da and 129.7 Da | 1 |  | 1200 ± 100 |  |  | 140 ± 20 | 34±2 10^−3 min^−1 |  | 101±2 | 3.4 to 16.9 | 101±2 | 21.3 to 42.3 | toxicity compared to the cyclic piperidinol [8]: greater toxicity
